Experimental data as given in article PMC4013053, “Identification of Selective Small Molecule Inhibitors of the Nucleotide-Binding Oligomerization Domain 1 (NOD1) Signaling Pathway” (PLoS ONE, 2014).

Legend:
[1] = system: NOD1-induced type I interferon response; assay: Tri-DAP stimulated IP-10 secretion in HT-29 cells; format: cell-based; settings: Homo sapiens; HT-29, 50 µg/mL Tri-DAP 24 hours
Description: (§1) For assay, cells were seeded into 96 well plates (90,000 cells/well) in DMEM containing 1% FBS and pre-incubated with compounds for 1 hour before addition of either 25 µg/mL Tri-DAP or 1 µg/mL MDP. The level of IL-8 released into medium after 24-hour incubation was determined by HTRF assay (Cisbio) as described above and fluorescence measured on an Envision model 2102 multilabel plate reader (Perkin Elmer). The activity of compounds against NOD1-induced type I interferon response was determined by inhibition of Tri-DAP stimulated IP-10 secretion in HT-29 cells, maintained in the same medium as for HCT116 cells. The HT-29 cells were seeded into 96 well plates (60,000 cells/well) in DMEM with 1% FBS, pre-incubated with compounds for 1 hour and stimulated for 24 hours with 50 µg/mL Tri-DAP. The concentration of IL-8 released into the medium was measured by HTRF as above, IP-10 was measured using the IP-10/CXCL10 Quantikine ELISA kit (R&D Systems), and IFNβ was measured using the MA6000 human IFN-β tissue culture kit (Meso Scale Discovery).

NOD1 = assay: Tri-DAP stimulated IL-8 release in HT-29 cells; format: cell-based, human; settings: HT-29, 50 µg/mL Tri-DAP 24 hours, same supernatants
Description: as §1

endogenous NOD1 = target: T1, endogenous NOD1 (Homo sapiens, UniProt Q9Y239); assay: Tri-DAP-stimulated IL-8 release in HCT116 cells; format: cell-based; settings: HCT116, increasing compound concentrations 0.005–1 µM, Tri-DAP 0.6–75 µg/mL
T1 construct: Compound activity on endogenous NOD1 and NOD2 receptors was determined; host or cells: HCT116
T1 sequence (Q9Y239 1-953): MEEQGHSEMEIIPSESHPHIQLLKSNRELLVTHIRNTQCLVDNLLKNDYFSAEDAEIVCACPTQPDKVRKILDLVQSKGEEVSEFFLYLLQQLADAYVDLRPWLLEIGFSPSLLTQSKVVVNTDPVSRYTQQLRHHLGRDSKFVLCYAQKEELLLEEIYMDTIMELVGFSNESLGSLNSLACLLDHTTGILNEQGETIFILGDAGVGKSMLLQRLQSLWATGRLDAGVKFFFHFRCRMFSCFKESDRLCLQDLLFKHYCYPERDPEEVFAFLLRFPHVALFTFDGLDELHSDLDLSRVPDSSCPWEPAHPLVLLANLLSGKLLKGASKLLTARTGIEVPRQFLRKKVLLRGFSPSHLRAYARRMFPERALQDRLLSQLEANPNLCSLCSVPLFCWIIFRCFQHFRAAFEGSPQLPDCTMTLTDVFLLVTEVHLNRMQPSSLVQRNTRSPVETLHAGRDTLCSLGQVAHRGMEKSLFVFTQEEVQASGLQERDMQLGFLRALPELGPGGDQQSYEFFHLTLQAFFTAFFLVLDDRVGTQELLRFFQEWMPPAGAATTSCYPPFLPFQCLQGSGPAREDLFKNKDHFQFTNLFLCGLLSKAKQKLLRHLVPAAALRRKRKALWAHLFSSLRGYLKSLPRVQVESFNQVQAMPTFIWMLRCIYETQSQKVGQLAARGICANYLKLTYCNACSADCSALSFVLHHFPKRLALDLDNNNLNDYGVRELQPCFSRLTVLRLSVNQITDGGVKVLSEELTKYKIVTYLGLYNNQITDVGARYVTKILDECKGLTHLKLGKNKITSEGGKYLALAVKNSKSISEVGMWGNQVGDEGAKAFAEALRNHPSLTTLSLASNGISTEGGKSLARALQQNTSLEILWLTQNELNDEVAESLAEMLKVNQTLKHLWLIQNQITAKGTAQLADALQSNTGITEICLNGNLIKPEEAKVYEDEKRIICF

NOD2 [2] = target: T2, NOD2 (Homo sapiens, UniProt Q9HC29); assay: MDP-stimulated IL-8 secretion in primary human monocytes; format: cell-based; set-up: Monocytes were purified from heparinized human whole blood; endogenous in cells; host or cells: primary human blood monocytes
Description: Monocytes were purified from heparinized human whole blood by centrifugation on Ficoll (Histopaque 1077) followed by Percoll gradients. Monocyte purity was >95% by morphological assessment of Wright’s stained cytospins. Cells were seeded at 100,000 per well in 96-well plates in RPMI containing 10%HI-FBS, pre-incubated for 1 hour with compounds, and then stimulated with either 25 µg/mL Tri-DAP or 1 µg/mL MDP. The concentration of IL-8 in medium samples collected after 24-hour treatment was determined by HTRF whereas IL-1β, IL-6 and TNFα were measured using the MS6000 human pro-inflammatory-4 II tissue culture kit (Meso Scale Discovery).

murine NOD1 = assay: NOD1 stimulated KC (CXCL1) production in murine bone marrow derived macrophages; format: cell-based, mouse; settings: murine BMDM, 25 µg/mL FK156 or Tri-DAP, 24 hours
Description: C57BL/6 mice were obtained from the Jackson Laboratories. Bone marrow was flushed from the femurs and tibiae of adult (∼3 month old) mice with serum-free DMEM medium using a 23-gauge needle and syringe. A fine cell suspension was obtained by gentle aspiration and passage through a […] cell strainer. After centrifugation and re-suspending in DMEM supplemented with 10%HI-FBS, the mononuclear cells obtained from each animal were plated into the central 60 wells of a 96-well plate. After 24 hours, the medium and non-adherent cells were removed and replaced with DMEM with 10%HI-FBS containing 10 ng/mL M-CSF and the cells cultured for 1 week with two additional medium changes. After this time the medium was aspirated and the cells pre-treated with compounds for 1 hour and then stimulated for 24 hours with either 25 µg/mL Tri-DAP or FK156. Each treatment was performed in triplicate wells. The concentration of murine KC (CXCL1) together with 6 other cytokines/chemokines present in conditioned medium was then determined using the murine pro-inflammatory 7-plex assay (Meso Scale Discovery).

NOD2 [3] = target: T2, NOD2; assay: MDP-stimulated IL-8 release in 293/hNOD2 cells; format: cell-based; settings: HEK293 stably expressing human NOD2, IL-8 released into medium
[4] = Chromatographic hydrophobicity index (Chrom log D); format: physicochemical; settings: pH 7.4
Source text: (§2) Physicochemical analyses of compounds were completed at GSK.

[5] = Permeability across an artificial membrane; format: in vitro ADME; settings: PAMPA
Source text: as §2

T2 sequence (Q9HC29 whole entry): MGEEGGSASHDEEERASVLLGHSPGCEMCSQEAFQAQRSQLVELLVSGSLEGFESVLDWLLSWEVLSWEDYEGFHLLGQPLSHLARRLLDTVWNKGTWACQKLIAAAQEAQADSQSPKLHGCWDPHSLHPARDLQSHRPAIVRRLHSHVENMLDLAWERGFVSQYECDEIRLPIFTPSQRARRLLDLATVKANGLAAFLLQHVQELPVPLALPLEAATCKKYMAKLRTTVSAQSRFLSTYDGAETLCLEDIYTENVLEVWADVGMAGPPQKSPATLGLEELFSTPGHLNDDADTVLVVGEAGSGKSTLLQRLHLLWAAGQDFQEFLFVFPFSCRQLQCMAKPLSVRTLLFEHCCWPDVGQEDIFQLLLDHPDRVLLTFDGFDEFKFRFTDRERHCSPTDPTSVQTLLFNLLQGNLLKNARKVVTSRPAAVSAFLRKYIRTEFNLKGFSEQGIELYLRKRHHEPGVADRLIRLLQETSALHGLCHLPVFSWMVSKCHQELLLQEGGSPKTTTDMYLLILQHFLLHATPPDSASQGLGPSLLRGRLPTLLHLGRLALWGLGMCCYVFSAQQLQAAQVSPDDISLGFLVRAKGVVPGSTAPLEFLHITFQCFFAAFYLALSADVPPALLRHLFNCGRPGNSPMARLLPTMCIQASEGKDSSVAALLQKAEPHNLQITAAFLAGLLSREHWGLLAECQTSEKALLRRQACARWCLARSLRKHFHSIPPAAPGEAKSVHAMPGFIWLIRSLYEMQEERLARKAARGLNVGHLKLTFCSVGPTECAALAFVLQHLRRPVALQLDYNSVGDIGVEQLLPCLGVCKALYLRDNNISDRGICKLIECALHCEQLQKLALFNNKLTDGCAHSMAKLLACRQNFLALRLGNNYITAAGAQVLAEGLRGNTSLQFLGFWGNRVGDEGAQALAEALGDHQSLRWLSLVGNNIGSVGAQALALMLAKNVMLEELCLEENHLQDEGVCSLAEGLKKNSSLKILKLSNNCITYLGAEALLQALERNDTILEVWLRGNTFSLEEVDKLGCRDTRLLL

Row | SMILES | IC50 [1] [nM] | IC50 (NOD1) [nM] | effect on MDP induced IL-8 secretion (NOD2 [2]) | IC50 (NOD2 [3]) [nM] | chromatographic logD [4] | Papp [5] [×10⁻⁶ cm/s] | effect on Tri-DAP concentration response (IL-8) (endogenous NOD1) | inhibition of FK156 or Tri-DAP-stimulated KC production (murine NOD1)
1 | Cn1c(=O)[nH]c(=O)c2c1nc(CCSc1ccccc1)n2Cc1ccccc1 [SB711] |  |  |  | > 50000 | 5.95 |  |  | 
2 | Cc1nc2ccc(NC(=O)c3cccc(NS(=O)(=O)c4ccc(F)cc4)c3)cc2s1 [GSK966] |  |  |  |  | 4.64 | 30 |  | 
3 | CCc1ccc(S(=O)(=O)Nc2cc(-n3c(C)nc4ccccc4c3=O)ccc2F)s1 [GSK223] |  |  |  | > 50000 | 4.27 | 49 |  | 

Second part, led by results:

Row | IC50 [1] [nM] | IC50 (NOD1) [nM] | effect on MDP induced IL-8 secretion (NOD2 [2]) | IC50 (NOD2 [3]) [nM] | chromatographic logD [4] | Papp [5] [×10⁻⁶ cm/s] | SMILES | effect on Tri-DAP concentration response (IL-8) (endogenous NOD1) | inhibition of FK156 or Tri-DAP-stimulated KC production (murine NOD1)
4 | 80 | 30 | did not inhibit | > 50000 |  |  | Cc1nc2ccccc2c(=O)n1-c1ccc(Cl)c(NS(=O)(=O)c2ccccc2F)c1 [Compound 22] | progressive reduction in both the apparent EC50 and maximum response of Tri-DAP | little or no inhibitory activity
5 | 250 | 40 |  | > 30000 | 4.89 | 22 | Cc1ccc(S(=O)(=O)Nc2cccc(C(=O)Nc3ccc4nc(C)sc4c3)c2)cc1 [Compound 16] | progressive reduction in both the apparent EC50 and maximum response of Tri-DAP | partial inhibition at best
